Data taken from patent EP0626016B1, “[…] […]” (BRITISH TECHNOLOGY GROUP LIMITED, priority 1992, dated 1993).
Where two headings read alike, the source gives them in different places.

Target: T1, HRP Type VIA (Armoracia rusticana, UniProt P00433)
T1 sequence (P00433 31-338): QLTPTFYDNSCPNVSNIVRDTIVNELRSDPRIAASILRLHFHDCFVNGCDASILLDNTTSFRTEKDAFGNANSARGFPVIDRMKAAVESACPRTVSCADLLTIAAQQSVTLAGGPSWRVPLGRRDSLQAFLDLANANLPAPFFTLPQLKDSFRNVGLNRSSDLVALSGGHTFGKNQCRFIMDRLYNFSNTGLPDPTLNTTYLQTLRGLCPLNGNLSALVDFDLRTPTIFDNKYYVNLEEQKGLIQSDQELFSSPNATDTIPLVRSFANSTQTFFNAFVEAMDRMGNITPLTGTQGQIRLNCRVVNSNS
Details: for (d) Signal: Background: ratio (control = with no enhancer): control value in brackets not reported

Compound	(a) Decrease in background (without HRP with test cpd.) (0.01 mg/ml, 10µl test compound)	(b) Increase in signal (with HRP, with test cpd.) (0.01 mg/ml, 10µl test compound)	(c) Increase in signal: background ratio (0.01 mg/ml, 10µl test compound)	(d) Signal: Background: ratio (control = with no enhancer) (0.01 mg/ml, 10µl test compound)	(a) Decrease in background (without HRP with test cpd.) (0.1 mg/ml, 10µl test compound)	(b) Increase in signal (with HRP, with test cpd.) (0.1 mg/ml, 10µl test compound)	(c) Increase in signal: background ratio (0.1 mg/ml, 10µl test compound)	(d) Signal: Background: ratio (control = with no enhancer) (0.1 mg/ml, 10µl test compound)	(a) Decrease in background (without HRP with test cpd.) (1 mg/ml, 10µl test compound)	(b) Increase in signal (with HRP, with test cpd.) (1 mg/ml, 10µl test compound)	(c) Increase in signal: background ratio (1 mg/ml, 10µl test compound)	(a) Decrease in background (without HRP with test cpd.)	(b) Increase in signal (with HRP, with test cpd.)	(c) Increase in signal: background ratio	(d) Signal: Background: ratio (control = with no enhancer) (1 mg/ml, 10µl test compound)
OB(O)c1ccccc1Cl [Compound 1027, 2-chlorophenylboronic acid]	Y	N	N (N = no)	2.1 (2.0)	Y	N	N (N = no)	3.2 (2.9)	Y	N	N (N = no)	–	–	–	–
OB(O)c1cccc(Cl)c1 [Compound 1028, 3-chlorophenylboronic acid]	–	–	–	–	–	–	–	–	–	–	–	Y	N and Y	–	–
OB(O)c1ccc(Cl)cc1 [Compound 1029, 4-chlorophenylboronic acid]	–	–	–	–	–	–	–	–	–	–	–	Y	Y	Y (key: Column (c) shows whether there was an increase in the signal:background ratio by over 25% of the control value (Y = yes; N = no)	–
O=C(CCl)Nc1cccc(B(O)O)c1 [Compound 1031, 3-chloroacetylaminophenylboronic acid]	Y	N	N (N = no)	2.1 (2.0)	Y	N	N (N = no)	3.3 (2.9)	Y	N	N (N = no)	–	–	–	–
CCC(C)CNc1cccc(B(O)O)c1 (stereo not shown) [Compound 1032, 3-(2'-methylbutylamino)phenylboronic acid]	Y	N	N (N = no)	–	Y	N	N (N = no)	3.4 (2.9)	Y	N	N (N = no)	–	–	–	–
OB(O)c1ccc(Nc2ccc(Cl)cc2)cc1 [Compound 1033, 4-(4'-chloroanilino)phenylboronic acid]	Y	Y	Y (Column (c) shows whether there was an increase in the signal:background ratio by over 25% of the control value (Y = yes)	4.1 (1.8)	Y	Y	Y (Column (c) shows whether there was an increase in the signal:background ratio by over 25% of the control value (Y = yes)	67.7 (2.8)	Y	Y	Y (Column (c) shows whether there was an increase in the signal:background ratio by over 25% of the control value (Y = yes)	–	–	–	173.9 (4.5)
